The source of these data is US20260022142A1, “MACROCYCLIC IMMUNOMODULATORS” (Bristol-Myers Squibb Company, priority 2022, published 2026).

Bridge positions count the residues as written; N and C are the ends. Square brackets hold non-standard residues; d marks the D form. Peptide text beside a SMILES is read from it. * marks the point of attachment. Bip = N[C@@H](Cc1ccc(-c2ccccc2)cc1)C(=O)O; Phe(3-Me) = Cc1cccc(C[C@H](N)C(=O)O)c1; Cha = N[C@@H](CC1CCCCC1)C(=O)O; Carboxymethyl = O=C(O)C*; Orn = NCCC[C@H](N)C(=O)O; Aun = NCCCCCCCCCCC(=O)O; Dab = NCC[C@H](N)C(=O)O; Dap = NC[C@H](N)C(=O)O; AEEA = NCCOCCOCC(=O)O

One may read the IC50 as the point on the concentration scale where inhibition reaches its midpoint.

The target of this assay is T1, PD-1/PD-L1 interaction (PE-labeled human PD-L1-Ig binding to Jurkat cell line over-expressing human PD-1) (Homo sapiens, UniProt Q15116).
T1 construct: expressed in transfected cells; host or cells: Jurkat
T1 sequence (Q15116 25-288): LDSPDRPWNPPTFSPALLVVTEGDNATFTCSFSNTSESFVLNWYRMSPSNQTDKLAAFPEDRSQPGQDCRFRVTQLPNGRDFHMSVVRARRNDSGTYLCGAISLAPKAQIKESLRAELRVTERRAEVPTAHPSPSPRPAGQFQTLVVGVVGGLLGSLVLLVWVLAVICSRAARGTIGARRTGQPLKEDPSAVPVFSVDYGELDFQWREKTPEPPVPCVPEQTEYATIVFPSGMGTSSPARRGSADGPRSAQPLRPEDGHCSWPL
The experiment in a line: Jurkat-PD-1 Cell Binding High-Content Screening Assay (CBA). The assay is classed as cell-based. As to conditions: Jurkat cell line over-expressing human PD-1; PE-labeled PD-L1-Ig 20 nM final; read-out: Jurkat hPD1-PDL1 IC50. In a few lines:
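Binding of fluorescent PD-L1-Ig (phycoerythrin on Ig tag, 20 nM final, 1 h) measured by high-content imaging of fixed, Hoechst-counterstained Jurkat-hPD-1 cells. Compound added 2 h at 37° C beforehand, in DMEM with 10% fetal calf serum.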
As to `CC(C)C[C@H]1NC(=O)[C@H](CCCN)NC(=O)[C@H](C(C)C)NC(=O)[C@H](Cc2ccc(-c3ccccc3)cc2)NC(=O)[C@H](C(C)C)NC(=O)[C@H](Cc2c[nH]c3ccccc23)NC(=O)[C@H](CC(=O)O)NC(=O)[C@H](Cc2ccc(OCC(=O)O)cc2)NC(=O)[C@H](CN)NC(=O)CSC[C@@H](C(=O)N[C@@H](CCC(=O)O)C(=O)NCCCCCCCCCCC(=O)O)NC(=O)[C@H]([C@@H](C)O)NC(=O)[C@H](C(C)C)NC(=O)[C@H](CC2CCCCC2)NC(=O)[C@H](Cc2c[nH]cn2)NC1=O` [Compound 1079] ({CH2CO}-[Dap]Y(Carboxymethyl)DWV[Bip]V[Orn][dL]H[Cha]VTCE[Aun]-OH; thioether N-14), the IC50 stood at 55.6 nM.
With `CC(C)C[C@H]1NC(=O)[C@H](CCCN)NC(=O)[C@H](C(C)C)NC(=O)[C@H](Cc2ccc(-c3ccccc3)cc2)NC(=O)[C@H](C(C)C)NC(=O)[C@H](Cc2c[nH]c3ccccc23)NC(=O)[C@H](CC(=O)O)NC(=O)[C@H](Cc2ccc(OCC(=O)O)cc2)NC(=O)[C@H](CN)NC(=O)CSC[C@@H](C(=O)N[C@@H](C)C(=O)N[C@@H](CCC(=O)O)C(=O)NCCCCCCCCCCC(=O)O)NC(=O)[C@H]([C@@H](C)O)NC(=O)[C@H](C(C)C)NC(=O)[C@H](CC2CCCCC2)NC(=O)[C@H](Cc2cnc[nH]2)NC1=O` [Compound 1080] ({CH2CO}-[Dap]Y(Carboxymethyl)DWV[Bip]V[Orn][dL]H[Cha]VTCAE[Aun]-OH; thioether N-14) the figure was 35.7 nM; with `CC(C)C[C@H]1NC(=O)[C@H](CCCN)NC(=O)[C@H](C(C)C)NC(=O)[C@H](Cc2ccc(-c3ccccc3)cc2)NC(=O)[C@H](C(C)C)NC(=O)[C@H](Cc2c[nH]c3ccccc23)NC(=O)[C@H](CC(=O)O)NC(=O)[C@H](Cc2ccc(OCC(=O)O)cc2)NC(=O)[C@H](CN)NC(=O)CSC[C@@H](C(=O)N[C@@H](C)C(=O)N[C@@H](CN)C(=O)NCCCCCCCCCCC(=O)O)NC(=O)[C@H]([C@@H](C)O)NC(=O)[C@H](C(C)C)NC(=O)[C@H](CC2CCCCC2)NC(=O)[C@H](Cc2cnc[nH]2)NC1=O` [Compound 1081] ({CH2CO}-[Dap]Y(Carboxymethyl)DWV[Bip]V[Orn][dL]H[Cha]VTCA[Dap][Aun]-OH; thioether N-14), 28.5 nM.
As for `CC(C)C[C@H]1NC(=O)[C@H](CCCN)NC(=O)[C@H](C(C)C)NC(=O)[C@H](Cc2ccc(-c3ccccc3)cc2)NC(=O)[C@H](C(C)C)NC(=O)[C@H](Cc2c[nH]c3ccccc23)NC(=O)[C@H](CC(=O)O)NC(=O)[C@H](Cc2ccc(OCC(=O)O)cc2)NC(=O)[C@H](CN)NC(=O)CSC[C@@H](C(=O)N[C@@H](C)C(=O)N[C@@H](CCN)C(=O)NCCCCCCCCCCC(=O)O)NC(=O)[C@H]([C@@H](C)O)NC(=O)[C@H](C(C)C)NC(=O)[C@H](CC2CCCCC2)NC(=O)[C@H](Cc2cnc[nH]2)NC1=O` [Compound 1082] ({CH2CO}-[Dap]Y(Carboxymethyl)DWV[Bip]V[Orn][dL]H[Cha]VTCA[Dab][Aun]-OH; thioether N-14), the IC50 came out at 24.7 nM.
Regarding `CC(C)C[C@H]1NC(=O)[C@H](CCCN)NC(=O)[C@H](C(C)C)NC(=O)[C@H](Cc2ccc(-c3ccccc3)cc2)NC(=O)[C@H](C(C)C)NC(=O)[C@H](Cc2c[nH]c3ccccc23)NC(=O)[C@H](CC(=O)O)NC(=O)[C@H](Cc2ccc(OCC(=O)O)cc2)NC(=O)[C@H](CN)NC(=O)CSC[C@@H](C(=O)N[C@@H](C)C(=O)N[C@@H](CCCN)C(=O)NCC(=O)NCCCCCCCCCCC(=O)O)NC(=O)[C@H]([C@@H](C)O)NC(=O)[C@H](C(C)C)NC(=O)[C@H](CC2CCCCC2)NC(=O)[C@H](Cc2c[nH]cn2)NC1=O` [Compound 1086] ({CH2CO}-[Dap]Y(Carboxymethyl)DWV[Bip]V[Orn][dL]H[Cha]VTCA[Orn]G[Aun]-OH; thioether N-14), the IC50 was 21 nM.
Regarding `CC(C)C[C@H]1NC(=O)[C@H](CCCN)NC(=O)[C@H](C(C)C)NC(=O)[C@H](Cc2ccc(-c3ccccc3)cc2)NC(=O)[C@H](C(C)C)NC(=O)[C@H](Cc2c[nH]c3ccccc23)NC(=O)[C@H](CC(=O)O)NC(=O)[C@H](Cc2ccc(OCC(=O)O)cc2)NC(=O)[C@H](CN)NC(=O)CSC[C@@H](C(=O)N[C@@H](C)C(=O)N[C@@H](CCC(=O)O)C(=O)NCC(=O)NCCCCCCCCCCC(=O)O)NC(=O)[C@H]([C@@H](C)O)NC(=O)[C@H](C(C)C)NC(=O)[C@H](CC2CCCCC2)NC(=O)[C@H](Cc2c[nH]cn2)NC1=O` [Compound 1088] ({CH2CO}-[Dap]Y(Carboxymethyl)DWV[Bip]V[Orn][dL]H[Cha]VTCAEG[Aun]-OH; thioether N-14), the IC50 worked out at 25 nM.
With `CC(C)C[C@H]1NC(=O)[C@H](CCCN)NC(=O)[C@H](C(C)C)NC(=O)[C@H](Cc2ccc(-c3ccccc3)cc2)NC(=O)[C@H](C(C)C)NC(=O)[C@H](Cc2c[nH]c3ccccc23)NC(=O)[C@H](CC(=O)O)NC(=O)[C@H](Cc2ccc(OCC(=O)O)cc2)NC(=O)[C@H](CN)NC(=O)CSC[C@@H](C(=O)N[C@@H](C)C(=O)N[C@@H](CC(=O)O)C(=O)NCC(=O)NCCCCCCCCCCC(=O)O)NC(=O)[C@H]([C@@H](C)O)NC(=O)[C@H](C(C)C)NC(=O)[C@H](CC2CCCCC2)NC(=O)[C@H](Cc2cnc[nH]2)NC1=O` [Compound 1089] ({CH2CO}-[Dap]Y(Carboxymethyl)DWV[Bip]V[Orn][dL]H[Cha]VTCADG[Aun]-OH; thioether N-14), the IC50 stood at 33.1 nM.
Take `CC(C)C[C@H]1NC(=O)[C@H](CCCN)NC(=O)[C@H](C(C)C)NC(=O)[C@H](Cc2ccc(-c3ccccc3)cc2)NC(=O)[C@H](C(C)C)NC(=O)[C@H](Cc2c[nH]c3ccccc23)NC(=O)[C@H](CC(=O)O)NC(=O)[C@H](Cc2ccc(OCC(=O)O)cc2)NC(=O)[C@H](CN)NC(=O)CSC[C@@H](C(=O)N[C@@H](C)C(=O)N[C@@H](CCCCN)C(=O)NCCCCCCCCCCC(=O)O)NC(=O)[C@H]([C@@H](C)O)NC(=O)[C@H](C(C)C)NC(=O)[C@H](CC2CCCCC2)NC(=O)[C@H](Cc2cnc[nH]2)NC1=O` [Compound 1090] ({CH2CO}-[Dap]Y(Carboxymethyl)DWV[Bip]V[Orn][dL]H[Cha]VTCAK[Aun]-OH; thioether N-14): the IC50 was 38.9 nM.
As for `CC(C)C[C@H]1NC(=O)[C@H](CCCN)NC(=O)[C@H](C(C)C)NC(=O)[C@H](Cc2ccc(-c3ccccc3)cc2)NC(=O)[C@H](C(C)C)NC(=O)[C@H](Cc2c[nH]c3ccccc23)NC(=O)[C@H](CC(=O)O)NC(=O)[C@H](Cc2ccc(OCC(=O)O)cc2)NC(=O)[C@H](CN)NC(=O)CSC[C@@H](C(=O)N[C@@H](C)C(=O)N[C@@H](CCCN)C(=O)NCCCCCCCCCCC(=O)O)NC(=O)[C@H]([C@@H](C)O)NC(=O)[C@H](C(C)C)NC(=O)[C@H](CC2CCCCC2)NC(=O)[C@H](Cc2cnc[nH]2)NC1=O` [Compound 1091] ({CH2CO}-[Dap]Y(Carboxymethyl)DWV[Bip]V[Orn][dL]H[Cha]VTCA[Orn][Aun]-OH; thioether N-14), the IC50 came out at 31.5 nM.
Take `CC(C)C[C@H]1NC(=O)[C@H](CCCN)NC(=O)[C@H](C(C)C)NC(=O)[C@H](Cc2ccc(-c3ccccc3)cc2)NC(=O)[C@H](C(C)C)NC(=O)[C@H](Cc2c[nH]c3ccccc23)NC(=O)[C@H](CC(=O)O)NC(=O)[C@H](Cc2ccc(OCC(=O)O)cc2)NC(=O)[C@H](CN)NC(=O)CSC[C@@H](C(=O)N[C@@H](CC(=O)O)C(=O)NCC(=O)NCCCCCCCCCCC(=O)O)NC(=O)[C@H]([C@@H](C)O)NC(=O)[C@H](C(C)C)NC(=O)[C@H](CC2CCCCC2)NC(=O)[C@H](Cc2cnc[nH]2)NC1=O` [Compound 1092] ({CH2CO}-[Dap]Y(Carboxymethyl)DWV[Bip]V[Orn][dL]H[Cha]VTCDG[Aun]-OH; thioether N-14): the half-inhibitory concentration (IC50) came out at 37.3 nM.
As to `Cc1cccc(C[C@@H]2NC(=O)[C@H](CC(=O)O)NC(=O)[C@H](Cc3ccc(OCC(=O)O)cc3)NC(=O)[C@H](CN)NC(=O)CSC[C@@H](C(=O)N[C@@H](CC(=O)O)C(=O)NCC(=O)NCCCCCCCCCCC(=O)O)NC(=O)[C@H]([C@@H](C)O)NC(=O)[C@H](C(C)C)NC(=O)[C@H](CC3CCCCC3)NC(=O)[C@H](Cc3cnc[nH]3)NC(=O)[C@@H](CC(C)C)NC(=O)[C@H](CCCN)NC(=O)[C@H](C(C)C)NC(=O)[C@H](Cc3ccc(-c4ccccc4)cc3)NC(=O)[C@H](C(C)C)NC2=O)c1` [Compound 1093] ({CH2CO}-[Dap]Y(Carboxymethyl)D[Phe(3-Me)]V[Bip]V[Orn][dL]H[Cha]VTCDG[Aun]-OH; thioether N-14), the IC50 was 11.8 nM.
For `CC(C)C[C@H]1NC(=O)[C@H](CCCN)NC(=O)[C@H](C(C)C)NC(=O)[C@H](Cc2ccc(-c3ccccc3)cc2)NC(=O)[C@H](C(C)C)NC(=O)[C@H](Cc2c[nH]c3ccccc23)NC(=O)[C@H](CC(=O)O)NC(=O)[C@H](Cc2ccc(OCC(=O)O)cc2)NC(=O)[C@H](CN)NC(=O)CSC[C@@H](C(=O)N[C@@H](CCC(=O)O)C(=O)NCC(=O)NCCCCCCCCCCC(=O)O)NC(=O)[C@H]([C@@H](C)O)NC(=O)[C@H](C(C)C)NC(=O)[C@H](CC2CCCCC2)NC(=O)[C@H](Cc2cnc[nH]2)NC1=O` [Compound 1094] ({CH2CO}-[Dap]Y(Carboxymethyl)DWV[Bip]V[Orn][dL]H[Cha]VTCEG[Aun]-OH; thioether N-14), the IC50 worked out at 17.2 nM.
With `CC(C)C[C@H]1NC(=O)[C@H](CCCN)NC(=O)[C@H](C(C)C)NC(=O)[C@H](Cc2ccc(-c3ccccc3)cc2)NC(=O)[C@H](C(C)C)NC(=O)[C@H](Cc2c[nH]c3ccccc23)NC(=O)[C@H](CC(=O)O)NC(=O)[C@H](Cc2ccc(OCC(=O)O)cc2)NC(=O)[C@H](CN)NC(=O)CSC[C@@H](C(=O)NCCOCCOCC(=O)N[C@@H](CN)C(=O)NCCCCCCCCCCC(=O)O)NC(=O)[C@H]([C@@H](C)O)NC(=O)[C@H](C(C)C)NC(=O)[C@H](CC2CCCCC2)NC(=O)[C@H](Cc2cnc[nH]2)NC1=O` [Compound 1095] ({CH2CO}-[Dap]Y(Carboxymethyl)DWV[Bip]V[Orn][dL]H[Cha]VTC[AEEA][Dap][Aun]-OH; thioether N-14) the figure was 15.7 nM.
